Laboratory results: US20100158897A1, “PAI-1 MODULATORS FOR THE TREATMENT OF OCULAR DISORDERS” (ALCON RESEARCH, LTD., priority 2006, published 2010)

Tests used:
PAI-1 [1] = experiment: PAI-1 ELISA: effect on TGFβ2-induced total PAI-1 protein in HTM cell supernatants; type: cell-based, human; details: TGFβ2 5 ng/mL, 24 h
Description: FIGS. 9-11 present graphs showing the effect of cilostazol, 3,4-dehydro cilostazol, and cilostamide on TGFβ2-induced (5 ng/mL; 24 h) total PAI-1 protein in supernatants from human trabecular meshwork (HTM) cell lines. Cilostazol was tested against three different HTM cell lines (GTM, NTM470-05, and GTM191-04).
(§1) Human TM cell culture: Human TM cells were isolated from post-mortem human donor tissue, characterized, and cultured as previously described. Generation and characterization of the transformed (GTM-3) cell line was also as previously described (Pang et al., Preliminary characterization of a transformed cell strain derived from human trabecular meshwork., Curr. Eye Res., Vol. 13:51-63, 1994.)
(§2) PAI-1 ELISA: 24-well plates of TM cell cultures were serum-deprived for 24 h followed by an additional 24 h (or as indicated) incubation with TGFβ2 in a serum-free medium. Aliquots of supernatants from the treated cultures were quantified for secreted PAI-1 content by means of human PAI-1 ELISA kit (American Diagnostica).

[2] = cited from earlier work
[3] = test system: intraocular pressure (IOP); experiment: Ad.TGFβ2-induced ocular hypertension in mice, topical ocular administration; type: in vivo; details: conscious mice, rebound tonometer
Description: FIGS. 12a-12b are graphs showing the effect of topical ocular administration of various concentrations of cilostazol compared to control on Ad.TGFβ2-induced ocular hypertension in mice. Ad.TGFβ2 viral vector was injected on Day 0. Dosing with Cilostazol or vehicle was performed on the indicated days (denoted by horizontal bars). Intraocular pressure (IOP) was monitored in conscious mice using a rebound tonometer.

PAI-1 [4] = details: non-ocular tissues of rats; cited from earlier work
retinal ganglion cells = details: post-axotomy; cited from earlier work
[5] = test system: optic nerve head and retina; details: in vivo; cited from earlier work
[6] = test system: human TM cells (GTM-3, GTM730); experiment: TM cell adhesion to vitronectin substrate (InnoCyte ECM Cell Adhesion Assay); type: cell-based; details: TGFβ2 5 ng/mL, 2 hr, GTM-3 and GTM730 cells
Description: as §1
TM cell adhesion: TM cell adhesion was determined by means of InnoCyte ECM Cell Adhesion Assay (Calbiochem). TM cells (20,000/well; serum-free medium) were plated onto a vitronectin-coated 96-well plate. Test agents were then added, followed by incubation in a cell culture incubator for the times indicated. Non-adherent cells were then removed by decantation and gentle wash of the wells with PBS. Relative cell attachment was determined by means of fluorescent dye (calcein-AM) uptake.

PAI-1 [7] = experiment: PAI-1 ELISA: TGFβ2 effect on PAI-1 levels in GTM-3 cell supernatants; type: cell-based, human; details: GTM-3 cells
Description: PAI-1 mediated effects may contribute to the previously observed TGFβ2-mediated accumulation of extracellular matrix materials in various tissues, including TM tissues. […] TGFβ2-treatment results in both concentration-dependent and time-dependent accumulation of PAI-1 in TM cell supernatants (FIGS. 1 and 2). PAI-1 levels increase gradually in response to TGFβ2, reaching a constant level at approximately 24 h post-treatment.
as §1, §2

Molecule: O=c1ccc2cc(OCCCCc3nnnn3C3CCCCC3)ccc2[nH]1 [3,4-dehydro cilostazol, 3,4-dehydro-cilostazol]
- effect on TGFβ2-induced total PAI-1 protein in supernatants (PAI-1 [1]; GTM-3 HTM cells, FIGS. 10-11): dose-dependent inhibitory effect
- share of total activity attributed to cilostazol ([2]; may account for): ≥ 50%
- activity relative to cilostazol ([2]; reportedly): 4-7 fold

Molecule: CN(C(=O)CCCOc1ccc2[nH]c(=O)ccc2c1)C1CCCCC1 [cilostamide, Cilostamide]
- effect on TGFβ2-induced total PAI-1 protein in supernatants (PAI-1 [1]; GTM-3 HTM cells, FIGS. 10-11): dose-dependent inhibitory effect

Molecule: O=C1CCc2cc(OCCCCc3nnnn3C3CCCCC3)ccc2N1 [cilostazol, Cilostazol]
- effect on TGFβ2-induced total PAI-1 protein in supernatants (PAI-1 [1]; three HTM cell lines (GTM, NTM470-05, GTM191-04), FIGS. 9a-9c): dose-dependent inhibitory effect
- IOP-lowering effect relative to control (Maxidex vehicle) ([3]; 0.3% cilostazol formulation): substantial IOP-lowering effects
- IOP-lowering effect relative to control (Maxidex vehicle) ([3]; 1.0% cilostazol formulation): substantial IOP-lowering effects
- TGFβ2 and PAI-1 protein expression and PAI-1 activity (PAI-1 [4]): suppresses
- survival of retinal ganglion cells (retinal ganglion cells): increase the survival of retinal ganglion cells
- blood flow to the optic nerve head and retina [5]: enhance blood flow

Molecule: TGFβ2: cytokine transforming growth factor β2
- effect on TM cell adhesion compared to controls [6]: did not experience measurable loss of adhesion
- time to constant PAI-1 level post-treatment (PAI-1 [7]; TGFβ2 5 ng/mL): approximately 24 h
- PAI-1 content in trabecular meshwork cell cultures (PAI-1 [7]; concentration- and time-dependent): increases the PAI-1 content
